# Assay results published in PubChem BioAssay AID1620 (Sanford-Burnham Center for Chemical Genomics, 2009).
# Active and inactive are the calls of the source.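 The calls were made as follows: active = toxicity graded low, moderate or high, meaning less radioactive sulfur built into protein than in solvent-only controls; inactive = the rest.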
# System: HeLa, 35S-Met/Cys protein incorporation toxicity, 3 h
# Assay: 35S-Met/Cys incorporation reduction in HeLa – HeLa cells, cytotoxicity control for PMI inhibitor project, late-stage follow-up (AID 1620)
row,Structure (SMILES),outcome
1,Cc1ccc(C)n1-c1nc(=S)[nH][nH]1,inactive; no toxicity
2,S=c1nc(-c2ccccc2Br)[nH][nH]1,inactive; no toxicity
3,O=c1c2ccccc2sn1-c1ccc(Cl)c(S(=O)(=O)N2CCOCC2)c1,active; moderate toxicity
4,COc1ccc(OC)c(N=c2ssnc2Cl)c1,inactive; no toxicity
5,Clc1ccc(N=c2ssnc2Cl)cc1Cl,active; highly toxic
6,O=c1c2ccccc2sn1-c1ccccc1,inactive; no toxicity
7,Clc1nss/c1=N\c1nc2ccccc2s1,active; highly toxic
8,COc1cc(N=c2ssnc2Cl)c(OC)cc1Cl,active; low toxicity
9,Cc1ccc(-n2sc3ccccc3c2=O)cc1S(=O)(=O)N1CCCCC1,active; moderate toxicity
10,COc1ccc2c(=O)n(C3CCCC3)sc2c1,inactive; no toxicity
11,O=c1c2ccccc2sn1-c1cccc(I)c1,active; highly toxic
12,S=c1nc(-c2cccc(Br)c2)[nH][nH]1,inactive; no toxicity
13,Cc1ccc(C)c(-n2sc3ccccc3c2=O)c1,active; moderate toxicity
14,O=c1c2ccc(O)cc2sn1C1CCCC1,inactive; no toxicity
15,COc1ccc(N=c2ssnc2Cl)cc1OC,active; highly toxic
16,Cc1c(Cl)cccc1-n1sc2cc([N+](=O)[O-])cc(OCC(F)(F)F)c2c1=O,active; low toxicity
17,OCc1ccccc1N=c1ssnc1Cl,inactive; no toxicity
18,O=C1c2ccccc2SC1c1ccccc1 (stereo not drawn),active; low toxicity
19,CCOc1ccc(-c2nc(=S)[nH][nH]2)cc1,inactive; no toxicity
20,O=c1c2cc(F)ccc2sn1-c1ccccc1,active; moderate toxicity
21,Cc1ccc(N=c2ssnc2Cl)cc1[N+](=O)[O-],active; moderate toxicity

row,Structure (SMILES),outcome
1,O=c1c2ccccc2sn1-c1ccc(Cl)cc1,active; highly toxic
2,Nc1ccccc1N=c1ssnc1Cl,inactive; no toxicity
3,O=c1c2ccccc2sn1-c1cccc(S(=O)(=O)Nc2ccc(Cl)cc2)c1,active; moderate toxicity
4,CCc1cc(CC)c(N=c2ssnc2Cl)c(CC)c1,active; highly toxic
5,Cc1ccc(N=c2ssnc2Cl)nc1,active; highly toxic
6,CC(C)(C)c1ccc(N=c2ssnc2Cl)cc1,active; moderate toxicity
7,Clc1nssc1=Nc1ccccc1,inactive; no toxicity
8,Clc1nss/c1=N\c1nccs1,inactive; no toxicity
9,Cc1cccc(-n2sc3cc(F)ccc3c2=O)c1C,active; moderate toxicity
10,COc1ccc(-c2nc(=S)[nH][nH]2)cc1OC,inactive; no toxicity
11,COC(=O)c1cccc(-n2sc3ccccc3c2=O)c1,active; moderate toxicity
12,COc1ccc(-c2nc(=S)[nH][nH]2)cc1,inactive; no toxicity
13,Clc1nssc1=Nc1ccc(Br)cc1,active; high toxicity
14,Cc1[nH]n(-c2ccccc2)c(=S)c1C=Nc1cccc([N+](=O)[O-])c1,inactive; no toxicity
15,O=c1c2ccccc2sn1-c1cc(S(=O)(=O)N2CCOCC2)ccc1N1CCCC1,active; moderate toxicity
16,N#CC1=C2SCN(Cc3ccccc3)CN2C(=O)CC1c1ccc2c(c1)OCO2 (stereo not drawn),inactive; no toxicity
17,Clc1cccc(N=c2ssnc2Cl)c1,active; low toxicity
18,Cc1ccc(C)c(-n2sc3ccc(F)cc3c2=O)c1,active; moderate toxicity
19,Cc1cccc(-n2sc3ccccc3c2=O)c1,active; moderate toxicity
20,O=[N+]([O-])c1ccc(N=c2ssnc2Cl)c2ccccc12,active; low toxicity
21,O=c1c2ccc(F)cc2sn1-c1cc(Cl)ccc1Cl,active; highly toxic

row,Structure (SMILES),outcome
1,S=c1nc(-c2cccc(Cl)c2)[nH][nH]1,inactive; no toxicity
2,O=c1c2ccccc2sn1-c1cccc(Cl)c1,active; highly toxic
3,Clc1nss/c1=N\c1nncs1,active; moderate toxicity
4,CN(C)c1ccc(N=c2ssnc2Cl)cc1,active; moderate toxicity
5,Cc1ccc(C)c(N2Cc3ccccc3C2=O)c1,active; low toxicity
6,O=c1c2ccccc2sn1-c1ccc2ccccc2c1,active; high toxicity
7,FC(F)(F)c1ccc(N=c2ssnc2Cl)cc1,active; moderate toxicity
8,Cc1ccc(N=c2ssnc2Cl)cc1,inactive; no toxicity
9,COc1cc(N=c2ssnc2Cl)cc(OC)c1OC,inactive; no toxicity
10,COc1cc(-c2nc(=S)[nH][nH]2)cc(OC)c1OC,inactive; no toxicity
11,O=c1c2ccccc2sn1-c1nccs1,inactive; no toxicity
12,Oc1ccc(N=c2ssnc2Cl)cc1,inactive; no toxicity
13,O=C(O)CCn1cc(C=C2C(=O)NC(=S)NC2=O)c(-c2cccc(Br)c2)n1,inactive; no toxicity
14,CN(C)c1cccc(-n2sc3ccccc3c2=O)c1,inactive; no toxicity
15,O=c1c2ccccc2sn1-c1ccc(F)cc1,active; moderate toxicity
16,O=C(NCc1ccccc1)c1cccc(-n2sc3ccccc3c2=O)c1,inactive; no toxicity
17,S=c1nc(C2COc3ccccc3O2)[nH][nH]1 (stereo not drawn),inactive; no toxicity
18,Cc1ccc(C=Nn2c(-c3ccncc3)n[nH]c2=S)cc1,inactive; no toxicity
19,Clc1ccc(N=c2ssnc2Cl)cc1,active; highly toxic
20,COc1cccc(-n2sc3ccccc3c2=O)c1,active; low toxicity
21,O=c1c2ccccc2sn1-c1cccc(C(F)(F)F)c1,active; highly toxic

row,Structure (SMILES),outcome
1,O=c1c2c([N+](=O)[O-])cc([N+](=O)[O-])cc2sn1-c1ccccc1F,active; low toxicity
2,Cc1ccc(N=c2ssnc2Cl)c([N+](=O)[O-])c1,active; low toxicity
3,O=C(O)c1ccccc1NS(=O)(=O)c1cccc(-n2sc3ccccc3c2=O)c1,active; high toxicity
4,O=C(O)c1cccc(-n2sc3ccccc3c2=O)c1,active; moderate toxicity
5,COc1cc([N+](=O)[O-])ccc1N=c1ssnc1Cl,active; moderate toxicity
6,N#Cc1ccc(N=c2ssnc2Cl)cc1,inactive; no toxicity
7,Cc1ccc(N=c2ssnc2Cl)cc1C,active; moderate toxicity
8,O=[N+]([O-])c1ccc(N=c2ssnc2Cl)c([N+](=O)[O-])c1,inactive; no toxicity
9,CN(C)S(=O)(=O)c1cccc(-n2sc3ccccc3c2=O)c1,active; moderate toxicity
10,Cc1ccc(C)c(-n2sc3cc(F)ccc3c2=O)c1,active; high toxicity
11,Clc1ccc(Nc2ccccc2N=c2ssnc2Cl)cc1,active; highly toxic
12,O=c1c2c([N+](=O)[O-])cc([N+](=O)[O-])cc2sn1-c1ccc(F)cc1,active; low toxicity
13,O=c1c2c([N+](=O)[O-])cc([N+](=O)[O-])cc2sn1-c1ccc(F)c(Cl)c1,inactive; no toxicity
14,Cc1cccc(N=c2ssnc2Cl)c1,active; moderate toxicity
15,O=c1c2ccccc2sn1-c1cc(S(=O)(=O)N2CCOCC2)ccc1N1CCOCC1,active; moderate toxicity
16,COc1cc(N=c2ssnc2Cl)cc(OC)c1,inactive; no toxicity
17,CN(C)c1cccc(N=c2ssnc2Cl)c1,active; highly toxic
18,Cc1ccnc(-n2sc3ccccc3c2=O)n1,inactive; no toxicity
19,CCSc1n[nH]c(=S)s1,inactive; no toxicity
20,Cc1ccc(C)c(-n2[nH]c3ccccc3c2=O)c1,inactive; no toxicity
